From PubChem BioAssay AID328 (DTP/NCI, 2004)
Inconclusive results and toxic doses are left out. How the source made its calls: active means survival T/C of 150% or more; inactive means T/C below 125% in these data.

Tested on: BDF1 mice, P388 leukemia ip, median survival T/C
Assay: NCI In Vivo Anticancer Drug Screen. Data for tumor model P388 Leukemia (intraperitoneal) in B6D2F1 (BDF1) mice
Conditions: endpoint: median survival time, higher = longer survival
Outline: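 Vehicle-dosed animals serve as the reference; survival of compound-dosed, tumour-implanted mice is divided by it.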

[1] = dose: 100.0 mg/kg/injection, schedule: Q01DX001 (ip), vehicle: saline with Tween-80
[2] = dose: 100.0 mg/kg/injection, schedule: Q04DX003 (ip), vehicle: saline with Tween-80
[3] = dose: 200.0 mg/kg/injection, schedule: Q04DX003 (ip), vehicle: saline with Tween-80
[4] = dose: 400.0 mg/kg/injection, schedule: Q04DX003 (ip), vehicle: saline with Tween-80
[5] = dose: 100.0 mg/kg/injection, schedule: Q04DX003 (ip), vehicle: saline
[6] = dose: 200.0 mg/kg/injection, schedule: Q04DX003 (ip), vehicle: saline
[7] = dose: 400.0 mg/kg/injection, schedule: Q04DX003 (ip), vehicle: saline

Measured: T/C

CC(=O)CC(C)=O.CC(=O)CC(C)=O.[Fe]
inactive: dose: 6.25 mg/kg/injection, schedule: Q01DX009 (ip), vehicle: saline 113 % of control | dose: 6.25 mg/kg/injection, schedule: Q04DX003 (ip), vehicle: saline 113 % of control | dose: 12.5 mg/kg/injection, schedule: Q01DX009 (ip), vehicle: saline 104 % of control | dose: 12.5 mg/kg/injection, schedule: Q04DX003 (ip), vehicle: saline 113 % of control | dose: 25.0 mg/kg/injection, schedule: Q01DX009 (ip), vehicle: saline 113 % of control | dose: 25.0 mg/kg/injection, schedule: Q04DX003 (ip), vehicle: saline 113 % of control | dose: 35.0 mg/kg/injection, schedule: Q04DX003 (ip), vehicle: saline 113 % of control

COC(C)c1cnccc1C(C)c1cc2ccccc2[nH]1 (configuration not stated)
inactive: [1] 105 % of control | dose: 200.0 mg/kg/injection, schedule: Q01DX001 (ip), vehicle: saline with Tween-80 108 % of control

Cc1ccc(N2C=Nc3ccc(C)cc3C2)cc1
inactive: dose: 10.0 mg/kg/injection, schedule: Q01DX009 (ip), vehicle: Klucel (hydroxypropylcellulose) (HPC) 100 % of control | dose: 15.0 mg/kg/injection, schedule: Q01DX009 (ip), vehicle: Klucel (hydroxypropylcellulose) (HPC) 100 % of control | dose: 25.0 mg/kg/injection, schedule: Q01DX009 (ip), vehicle: Klucel (hydroxypropylcellulose) (HPC) 90 % of control | dose: 40.0 mg/kg/injection, schedule: Q01DX009 (ip), vehicle: Klucel (hydroxypropylcellulose) (HPC) 100 % of control | dose: 50.0 mg/kg/injection, schedule: Q01DX009 (ip), vehicle: Klucel (hydroxypropylcellulose) (HPC) 118 % of control | dose: 100.0 mg/kg/injection, schedule: Q01DX009 (ip), vehicle: Klucel (hydroxypropylcellulose) (HPC) 109 % of control | dose: 100.0 mg/kg/injection, schedule: Q04DX003 (ip), vehicle: other 109 % of control | dose: 200.0 mg/kg/injection, schedule: Q01DX009 (ip), vehicle: Klucel (hydroxypropylcellulose) (HPC) 90 % of control | dose: 200.0 mg/kg/injection, schedule: Q04DX003 (ip), vehicle: other 104 % of control

CCC(CC)C(O)C(C)C(C)O (configuration not stated)
inactive: [2] 100 % of control | [3] 100 % of control | [4] 100 % of control

COc1cc(/C=N/OCc2cc3c(cc2Cl)OCO3)cc(OC)c1OC
inactive: dose: 100.0 mg/kg/injection, schedule: Q04DX003 (ip), vehicle: saline sonified 95 % of control | dose: 200.0 mg/kg/injection, schedule: Q04DX003 (ip), vehicle: saline sonified 90 % of control | dose: 400.0 mg/kg/injection, schedule: Q04DX003 (ip), vehicle: saline sonified 104 % of control

CC(=O)N(C)c1ccc(N)cc1
inactive: [5] 100 % of control | [6] 100 % of control | [7] 109 % of control

CCCn1c(C)nc2cc(C(F)(F)F)cc(N)c21
inactive: [2] 103 % of control | [3] 92 % of control | [4] 97 % of control

O=C1C(Cl)=C(Cl)C(=O)C2CC=CCC12 (configuration not stated)
inactive: dose: 3.13 mg/kg/injection, schedule: Q01DX001 (ip), vehicle: saline with Tween-80 95 % of control | dose: 6.25 mg/kg/injection, schedule: Q01DX001 (ip), vehicle: saline with Tween-80 114 % of control

C1CC[N-]CC1.C1CC[N-]CC1.[Co].[N-]=C=S.[N-]=C=S
inactive: [1] 99 % of control

Cc1ccc2[nH]c(=S)[nH]c(=S)c2c1
inactive: [2] 108 % of control | [3] 95 % of control | [4] 108 % of control

CCOC(=O)CCC(NC(=O)c1ccc(N(C=O)CCOC=O)cc1)C(=O)OCC (configuration not stated)
inactive: dose: 50.0 mg/kg/injection, schedule: Q04DX003 (ip), vehicle: saline with Tween-80 105 % of control | [2] 105 % of control | [3] 111 % of control

CC1CCC2(C)CCC(C(C)C)C2(O)CC1 (configuration not stated)
inactive: dose: 100.0 mg/kg/injection, schedule: Q01DX009 (ip), vehicle: saline 103 % of control | [5] 100 % of control | [6] 109 % of control | dose: 400.0 mg/kg/injection, schedule: Q01DX009 (ip), vehicle: saline 111 % of control | [7] 100 % of control

CN(C)S(=O)(=O)c1ccccc1C(O)(c1ccccc1)c1ccccc1
inactive: [2] 99 % of control | [3] 116 % of control | [4] 91 % of control
